Results published in patent US11679098B2, “Methods for treating diseases” (UNIVERSITY OF LOUISVILLE RESEARCH FOUNDATION, INC., priority 2018, dated 2023).

What was measured:
[1] = system: IMR-90 (non-malignant lung fibroblasts); experiment: MTT antiproliferative assay in IMR-90 cells; type: cell-based; details: Homo sapiens, 72 hrs treatment, read-out: MTT Antiproliferative Activity - IC50 (μM) IMR0 (non-malignant lung fibroblasts)
Description: (§1) Cell culture. A549 and IMR-90 cells were purchased from the American Type Culture Collection (ATCC), while HOP-62 and HOP-92 were obtained from the cell line repository at the National Cancer Institute. Cells were grown in the appropriate medium supplemented with 10% fetal bovine serum (FBS, Life Technologies, Grand Island, N.Y.), 62.5 μg/mL penicillin and 100 μg/mL streptomycin (Life Technologies) in a humidified incubator at 37° C. with 5% CO2. The media were as follows: Dulbecco's modified Eagle's medium (DMEM, Life Technologies) for A549 cells; RPMI 1640 (Life Technologies) for HOP-62 and HOP-92 cells; Eagle's minimal essential medium (EMEM) with Eagle's balanced salt solution (EBSS), 2 mM L-glutamine, 1500 mg/L sodium bicarbonate (Lonza, Walkersville, Md.), supplemented with 1 mM sodium pyruvate (Life Technologies) and non-essential amino acids (Life Technologies) for IMR-90 cells. Cell lines were verified with a 9-marker short tandem repeat profile and inter-species contamination test (Idexx BioResearch), although A549 cells utilized in proliferation assays were missing the Y allele at the amelogenin marker.
(§2) Cell proliferation & viability assays. Anti-proliferative activity of XB05 and other compounds was evaluated using a previously published 3-(4,5-dimethylthiazol-2-yl)-2,5-diphenyltetrazolium bromide (MTT) assay protocol (MORGAN “Tetrazolium (MTT) assay for cellular viability and activity” Methods Mol Biol. (1998) Vol. 79, pp. 179-83, which is herein incorporated by reference in its entirety, BATES et al. “Antiproliferative activity of G-rich oligonucleotides correlates with protein binding” J Biol Chem. (1999) Vol. 274, No. 37, pp. 26369-26377, which is herein incorporated by reference in its entirety, SALIPUR et al. “A novel small molecule that induces oxidative stress and selectively kills malignant cells” Free Radic Biol Med. (2014) Vol. 68, pp. 110-121, which is herein incorporated by reference in its entirety). Cells were seeded in quadruplicate wells in 96-well plates and allowed to adhere overnight. […] After 72 hrs of treatment with XB05 or other compounds, MTT (Sigma, St. Louis, Mo.) was added for 4 hrs prior to cell lysis. Each assay was performed in at least triplicate.
(§3) XB05 and related compounds were assessed for anti-proliferative activity in malignant (A549) and non-malignant (IMR-90) cells (Table A2).

[2] = system: A549 (lung adenocarcinoma); experiment: MTT antiproliferative assay in A549 cells; type: cell-based, human; details: Homo sapiens, 72 hrs treatment, MTT
Description: as §1, §2, §3

[3] = DTNB assay for reactivity with free thiols, reduced glutathione; type: physicochemical; details: 0.25 mM reduced glutathione, 30 min at 37° C., pH 8.0
Description: (§4) Dithiobis-2-nitrobenzioc acid (DTNB) assay for free sulfhydryls. Similar to previously described in SALIPUR et al. “A novel small molecule that induces oxidative stress and selectively kills malignant cells” Free Radic Biol Med. (2014) Vol. 68, pp. 110-121, which is herein incorporated by reference in its entirety, reactivity with free sulfhydryls was evaluated using DTNB (Sigma). Briefly, a 4× solution of DTNB (6 mM DTNB, 50 mM sodium acetate in 100 mM Tris-HCl, pH 8.0) and solutions of 0.5 mM cysteine (Sigma) and reduced glutathione (GSH, Sigma) in 100 mM Tris-HCl, pH 8.0 were freshly prepared. The 200 mM stock solutions of XB05, other compounds, diethylmaleate (Sigma), and maleimide (Sigma) were prepared in 100% DMSO, and subsequently diluted to 2× working solutions in 100 mM Tris-HCl, pH 8.0. Thiol compounds (final concentration 0.25 mM) and thiol-reactive compounds (final concentrations 0.04-5 mM) or vehicle were added in duplicate to a 96-well plate and incubated for 30 min at 37° C. DTNB solution was then added to each well (final concentration 400 μM), and incubated at room temperature for an additional 5 min. Absorbance at 412 nm was determined by a Biotek HT Synergy plate reader (Winooski, Vt.).

[4] = DTNB assay for reactivity with free thiols, cysteine; type: physicochemical; details: 0.25 mM cysteine, 30 min at 37° C., pH 8.0
Description: as §4

SMILES	IC50 [2] [µM]	IC50 [1] [µM]	DTNB Reactivity with Thiols - DTNB assay with Glutathione [3]	DTNB Reactivity with Thiols - DTNB assay with Cysteine [4]
OC(C#CC(F)(F)Br)c1ccccc1 (stereo not shown) [MNR-3-93]	> 10	> 10	–	–
CCCCCC(O)C#CC(F)(F)SCc1ccccc1 (stereo not shown) [MNR-1-111]	> 10	> 10	ND (DTNB ND - not detected at concentrations up to 2.5 mM)	ND (DTNB ND - not detected at concentrations up to 2.5 mM)
CCCCCC(C#CC(F)(F)Br)OC1CCCCO1 (stereo not shown) [MNR-3-27]	1.9	3.7	–	–
CCCCCC(C)(O)C#CC(F)(F)Br (stereo not shown) [MNR-1-118]	8.2	> 10	ND (DTNB ND - not detected at concentrations up to 2.5 mM)	ND (DTNB ND - not detected at concentrations up to 2.5 mM)
CCCCCC(O)C#CC(F)F (stereo not shown) [MNR-3-91]	> 10	> 10	–	–
CCCCCC(O)C#CC(F)(F)Oc1ccc(F)cc1 (stereo not shown) [MNR-1-110]	> 10	> 10	ND (DTNB ND - not detected at concentrations up to 2.5 mM)	ND (DTNB ND - not detected at concentrations up to 2.5 mM)
C#CC(O)CCCCC (stereo not shown) [Compound 1-Octyn-3-ol, 1-Octyn-3-ol]	> 10	> 10	ND (DTNB ND - not detected at concentrations up to 2.5 mM)	Reactive
O=C(CCCCC1SCC2NC(=O)NC21)NCCOCCOCCOCCOCCC(=O)NCCCCCCCCCC(O)C#CC(F)(F)Br (stereo not shown) [MNR-2-6]	> 10	> 10	–	–
CCCCCCC#CC(F)(F)Br [JAB-4-158]	2.1	> 10	ND (DTNB ND - not detected at concentrations up to 2.5 mM)	ND (DTNB ND - not detected at concentrations up to 2.5 mM)
CC(C)C(O)C#CC(F)(F)Br (stereo not shown) [MNR-3-86]	> 10	> 10	–	–
CCCCCC(=O)/C=C(\NCCC)C(F)(F)Br [JAB-4-165]	> 10	> 10	ND (DTNB ND - not detected at concentrations up to 2.5 mM)	ND (DTNB ND - not detected at concentrations up to 2.5 mM)
OC(C#CC(F)(F)Br)CCCCc1ccccc1 (stereo not shown) [MNR-1-129]	> 10	> 10	–	–
CC(C)(C)C(O)C#CC(F)(F)Br (stereo not shown) [MNR-3-85]	> 10	> 10	–	–
CC/C=C\CCC(O)C#CC(F)(F)Br (stereo not shown) [JAB-4-169]	0.4	3.8	ND (DTNB ND - not detected at concentrations up to 2.5 mM)	ND (DTNB ND - not detected at concentrations up to 2.5 mM)
CCCCCC(C#CC(F)(F)Br)OC(C)=O (stereo not shown) [MNR-3-43]	0.9	5.4	ND (DTNB ND - not detected at concentrations up to 2.5 mM)	ND (DTNB ND - not detected at concentrations up to 2.5 mM)
CCCCCC(O)C#CCBr (stereo not shown) [MNR-3-92]	7.1	8.7	Reactive	Reactive
OC(C#CC(F)(F)Br)CCc1ccccc1 (stereo not shown) [MNR-3-82]	1.2	2.8	–	–
CCCC(C)C(O)C#CC(F)(F)Br (stereo not shown) [MNR-1-117]	1.9	7.9	ND (DTNB ND - not detected at concentrations up to 2.5 mM)	ND (DTNB ND - not detected at concentrations up to 2.5 mM)
CCCCCC(=O)C#CC(F)(F)Br [JAB-4-163]	> 10	> 10	ND (DTNB ND - not detected at concentrations up to 2.5 mM)	ND (DTNB ND - not detected at concentrations up to 2.5 mM)
OC(C#CC(F)(F)Br)C1CCCCC1 (stereo not shown) [MNR-3-90]	0.9	3.1	–	–

Second part, led by results:

IC50 [2] [µM]	SMILES	IC50 [1] [µM]	DTNB Reactivity with Thiols - DTNB assay with Glutathione [3]	DTNB Reactivity with Thiols - DTNB assay with Cysteine [4]
0.4	CCCCC[C@@H](O)C#CC(F)(F)Br [MNR-3-38]	1.5	ND (DTNB ND - not detected at concentrations up to 2.5 mM)	ND (DTNB ND - not detected at concentrations up to 2.5 mM)
0.8	CCCC(O)C#CC(F)(F)Br (stereo not shown) [MNR-1-122]	1.1	ND (DTNB ND - not detected at concentrations up to 2.5 mM)	ND (DTNB ND - not detected at concentrations up to 2.5 mM)
3.5	CCCCCC(C#CC(F)(F)Br)OC (stereo not shown) [JAB-4-155]	> 10	ND (DTNB ND - not detected at concentrations up to 2.5 mM)	ND (DTNB ND - not detected at concentrations up to 2.5 mM)
> 10	CC(C)(C)OC(=O)NCCCCCCCCCC(O)C#CC(F)(F)Br (stereo not shown) [MNR-1-186]	> 10	–	–
1	CCCCCCCCCC(O)C#CC(F)(F)Br (stereo not shown) [MNR-3-69]	2.8	–	–
> 10	CCCCCC(O)C#CC(F)(F)F (stereo not shown) [JAB-4-156]	> 10	ND (DTNB ND - not detected at concentrations up to 2.5 mM)	ND (DTNB ND - not detected at concentrations up to 2.5 mM)
1.1	CCCCCCCCCCCC(O)C#CC(F)(F)Br (stereo not shown) [MNR-3-89]	2.7	–	–
> 10	CCCCCC(Cl)C#CC(F)(F)Br (stereo not shown) [MNR-1-102]	> 10	Reactive	ND (DTNB ND - not detected at concentrations up to 2.5 mM)
4.8	CCCCC[C@H](O)C#CC(F)(F)Br [MNR-3-41]	> 10	–	–
0.9	CCCCCCCC(O)C#CC(F)(F)Br (stereo not shown) [MNR-3-94]	2.7	–	–
1.1	CCC#CCCCCCCCC(O)C#CC(F)(F)Br (stereo not shown) [MNR-1-147]	4	–	–
